Assays:
Assay in all cases: relative viability (nuclei count vs DMSO), 5 days (fraction); higher = more cells survive
17-AAG + Navitoclax = compound: C=CCNC1=C2C[C@@H](C)C[C@H](OC)[C@H](O)[C@@H](C)/C=C(\C)[C@H](OC(N)=O)[C@@H](OC)/C=C\C=C(/C)C(=O)NC(=CC1=O)C2=O [17-AAG] + CC1(C)CCC(c2ccc(Cl)cc2)=C(CN2CCN(c3ccc(C(=O)NS(=O)(=O)c4ccc(N[C@H](CCN5CCOCC5)CSc5ccccc5)c(S(=O)(=O)C(F)(F)F)c4)cc3)CC2)C1 [Navitoclax] (partner 0.5 µM)
Method in brief: (§1)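 Dosing by pin tool came one day after lung cancer cell lines were seeded in 1536-well plates, using either one drug or a fixed anchor-drug dose plus five library-drug doses (not always all listed) in √10 steps. After 5 days, nuclei were counted on 4× images. Relative viability is treated-well nuclei count divided by vehicle-well nuclei count, and values are medians of duplicate plates.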

17-AAG + Crizotinib = compound: C=CCNC1=C2C[C@@H](C)C[C@H](OC)[C@H](O)[C@@H](C)/C=C(\C)[C@H](OC(N)=O)[C@@H](OC)/C=C\C=C(/C)C(=O)NC(=CC1=O)C2=O [17-AAG] + C[C@@H](Oc1cc(-c2cnn(C3CCNCC3)c2)cnc1N)c1c(Cl)ccc(F)c1Cl [Crizotinib] (partner 1 µM)
Method in brief: as §1

17-AAG + Dasatinib = compound: C=CCNC1=C2C[C@@H](C)C[C@H](OC)[C@H](O)[C@@H](C)/C=C(\C)[C@H](OC(N)=O)[C@@H](OC)/C=C\C=C(/C)C(=O)NC(=CC1=O)C2=O [17-AAG] + Cc1nc(Nc2ncc(C(=O)Nc3c(C)cccc3Cl)s2)cc(N2CCN(CCO)CC2)n1 [Dasatinib] (partner 0.075 µM)
Method in brief: as §1

17-AAG + Vorinostat = compound: C=CCNC1=C2C[C@@H](C)C[C@H](OC)[C@H](O)[C@@H](C)/C=C(\C)[C@H](OC(N)=O)[C@@H](OC)/C=C\C=C(/C)C(=O)NC(=CC1=O)C2=O [17-AAG] + O=C(CCCCCCC(=O)Nc1ccccc1)NO [Vorinostat] (partner 1 µM)
Method in brief: as §1

Cell Line | relative viability (17-AAG + Navitoclax; first compound 0.00128 µM) | relative viability (17-AAG + Navitoclax; first compound 0.004048 µM) | relative viability (17-AAG + Navitoclax; first compound 0.0128 µM) | relative viability (17-AAG + Navitoclax; first compound 0.04048 µM) | relative viability (17-AAG + Navitoclax; first compound 0.128 µM) | relative viability (17-AAG + Crizotinib; first compound 0.00128 µM) | relative viability (17-AAG + Crizotinib; first compound 0.004048 µM) | relative viability (17-AAG + Crizotinib; first compound 0.0128 µM) | relative viability (17-AAG + Crizotinib; first compound 0.04048 µM) | relative viability (17-AAG + Crizotinib; first compound 0.128 µM) | relative viability (17-AAG + Dasatinib; first compound 0.00128 µM) | relative viability (17-AAG + Dasatinib; first compound 0.004048 µM) | relative viability (17-AAG + Dasatinib; first compound 0.0128 µM) | relative viability (17-AAG + Dasatinib; first compound 0.04048 µM) | relative viability (17-AAG + Dasatinib; first compound 0.128 µM) | relative viability (17-AAG + Vorinostat; first compound 0.00128 µM) | relative viability (17-AAG + Vorinostat; first compound 0.004048 µM) | relative viability (17-AAG + Vorinostat; first compound 0.0128 µM) | relative viability (17-AAG + Vorinostat; first compound 0.04048 µM) | relative viability (17-AAG + Vorinostat; first compound 0.128 µM)
COR-L23 | 1.07 | 1.06 | 0.991 | 0.544 | 0.0992 | 0.725 | 0.614 | 0.749 | 0.339 | 0.0896 | 0.58 | 0.451 | 0.504 | 0.313 | 0.0763 | 0.489 | 0.408 | 0.47 | 0.319 | 0.109
NCI-H1650 | 1.19 | 0.782 | 0.407 | 0.181 | 0.171 | 1.01 | 0.659 | 0.136 | 0.179 | 0.126 | 0.267 | 0.147 | 0.167 | 0.199 | 0.148 | 0.371 | 0.376 | 0.232 | 0.152 | 0.138
SK-LU-1 | 0.818 | 0.164 | 0.135 | 0.152 | 0.136 | 0.888 | 0.435 | 0.242 | 0.232 | 0.176 | 0.154 | 0.0796 | 0.0621 | 0.0687 | 0.0526 | 0.86 | 0.556 | 0.293 | 0.253 | 0.199
NCI-H1915 | 0.763 | 0.754 | 0.797 | 0.771 | 0.409 | 0.89 | 0.899 | 0.871 | 0.878 | 0.223 | 0.29 | 0.322 | 0.218 | 0.115 | 0.0794 | 0.447 | 0.465 | 0.45 | 0.167 | 0.0637
NCI-H647 | 1.23 | 1.01 | 0.11 | 0.104 | 0.0816 | 1.11 | 0.755 | 0.101 | 0.0977 | 0.08 | 0.193 | 0.112 | 0.0468 | 0.107 | 0.0735 | 0.584 | 0.533 | 0.132 | 0.116 | 0.0825
NCI-H2009 | 1.1 | 1.09 | 1.07 | 0.884 | 0.369 | 1.12 | 1.01 | 0.99 | 0.496 | 0.0881 | 0.313 | 0.298 | 0.304 | 0.229 | 0.0827 | 0.681 | 0.724 | 0.735 | 0.699 | 0.276
NCI-H2126 | 0.864 | 0.845 | 0.878 | 0.796 | 0.381 | 1.08 | 1.02 | 1.01 | 0.951 | 0.43 | 0.596 | 0.515 | 0.202 | 0.22 | 0.243 | 0.865 | 0.933 | 0.782 | 0.199 | 0.227
LXF-289 | 0.995 | 0.907 | 0.891 | 0.536 | 0.184 | 0.789 | 0.783 | 0.73 | 0.572 | 0.163 | 0.234 | 0.183 | 0.0975 | 0.064 | 0.0605 | 0.765 | 0.759 | 0.402 | 0.214 | 0.115
PC-3 [JPC-3] | 0.794 | 0.82 | 0.835 |  | 0.793 | 0.956 | 0.99 | 0.833 |  | 0.91 | 1.02 | 0.966 | 1 |  | 0.815 | 1 | 0.819 | 0.795 | 0.503 | 0.8
HOP-62 | 1.16 | 1.01 | 1.05 | 0.843 | 0.151 | 0.938 | 1.04 | 1.02 | 0.935 | 0.248 | 0.685 | 0.683 | 0.485 | 0.175 | 0.1 | 0.687 | 0.563 | 0.452 | 0.141 | 0.083
SK-MES-1 | 1.17 | 1.12 | 0.951 | 0.162 | 0.131 | 1.02 | 1.01 | 0.822 | 0.224 | 0.144 | 0.358 | 0.249 | 0.11 | 0.106 | 0.101 | 1.1 | 1.03 | 0.514 | 0.182 | 0.179
NCI-H1666 | 0.958 | 0.699 | 0.277 | 0.314 | 0.236 | 1.04 | 0.853 | 0.288 | 0.305 | 0.215 | 0.783 | 0.718 | 0.309 | 0.35 | 0.295 | 1.1 | 1.06 | 1.02 | 0.498 | 0.482
NCI-H1355 | 0.927 | 0.944 | 0.958 | 0.449 | 0.373 | 1.03 | 1.1 | 1.1 | 0.93 | 0.287 | 0.708 | 0.725 | 0.327 | 0.325 | 0.156 | 0.639 | 0.692 | 0.607 | 0.228 | 0.141
HCC-827 | 0.973 | 1.03 | 1.01 |  | 0.944 | 0.941 | 0.91 | 0.943 |  | 0.754 | 0.332 | 0.39 | 0.253 |  | 0.32 | 0.963 | 0.864 | 0.833 |  | 0.863
